Assay results reported in ChEMBL document CHEMBL1159179, “Glucuronide prodrugs of hydroxy compounds for antibody directed enzyme prodrug therapy (ADEPT) : A phenol nitrogen mustard carbamate” (Bioorg Med Chem Lett, 1997).

Legend:
[1] = Half life period was determined; assay type: ADME; settings: rat
[2] = tested on: LoVo; assay: Tested for the cytotoxic effect in LoVo cells, activity; assay type: functional, cell-based; settings: Homo sapiens

CN(C(=O)Oc1ccc(N(CCCl)CCCl)cc1)c1cc([N+](=O)[O-])ccc1O[C@@H]1O[C@@H](C(=O)O)[C@@H](O)[C@H](O)[C@@H]1O
half-life [1]: 44 min
IC50 [2]: > 830 µM
